The subject of one experiment is TSLP. As to the kind of experiment: TSLP transcript levels in mouse ear epidermis after topical treatment (Q-RT-PCR). To be noted: WT mice. The format is in vivo. From the text: Mice. […] Real time PCR. Total RNA was reverse transcribed using hexamers, followed by Q-PCR, as reported (Li et al., 2005). The GC agonist fluocinolone acetonide (FA) was applied to ears of mice concomitantly treated with the “low-calcemic” Vitamin D3 (VitD3) analog MC903 (Calcipotriol; hereafter called MC) to trigger TSLP expression (Li et al., 2006). […] As expected, the expression of the GC-inducible GPX3 (glutathione peroxidase 3) gene which harbours a (+)GRE (Tuckermann et al., 1999) was enhanced by FA (FIG. 10) and inhibited by RU co-treatment, while FA or RU had no effect on MC-dependent expression of the CYP24A1 gene (a VitD3 target) (FIG. 10). […] Although the basal TSLP level was similar in vehicle-treated WT and GR^ep−/− mice, FA blocked MC-induced TSLP expression in WT, but not in GR^ep−/− mice (not shown).

Experiment [1] relates to GPX3 (glutathione peroxidase 3) gene, (+)GRE. The experiment is described as follows: GPX3 transcript levels in mouse ear epidermis after topical treatment (Q-RT-PCR). The conditions noted are these: WT mice, ears, topical FA, FIG. 10. The class given is in vivo. The source says: Mice. […] Real time PCR. Total RNA was reverse transcribed using hexamers, followed by Q-PCR, as reported (Li et al., 2005). The GC agonist fluocinolone acetonide (FA) was applied to ears of mice concomitantly treated with the “low-calcemic” Vitamin D3 (VitD3) analog MC903 (Calcipotriol; hereafter called MC) to trigger TSLP expression (Li et al., 2006). […] As expected, the expression of the GC-inducible GPX3 (glutathione peroxidase 3) gene which harbours a (+)GRE (Tuckermann et al., 1999) was enhanced by FA (FIG. 10) and inhibited by RU co-treatment, while FA or RU had no effect on MC-dependent expression of the CYP24A1 gene (a VitD3 target) (FIG. 10).

For experiment [2], the system named is IR nGRE (pGL3(VDRE) IR1 nGRE luciferase reporter). The experiment is described as follows: Luciferase reporter assay in A549 cells, pGL3(VDRE) IR nGRE plasmids. The format is cell-based, human. As for the experimental part:
Luciferase reporter assay. A549 cells seeded on 24-well tissue culture plates overnight at 70% confluency were transfected with 100 ng pCMV β galactosidase, 200 ng pGL3 reporter plasmids and wherever indicated, with 600 ng pSG5 hVDR plasmid (Green et al., 1988) into each well and maintained in medium containing charcoal treated FCS. 24 hours post-transfection, medium was changed and different compounds were added to it for 6 hours. […] Luciferase assay was carried out as instructed (Promega). Normalized values are reported as the mean±SEM; each value originates from at least three individual transfections with assays performed in duplicate.
To investigate whether additional DNA elements could be required to generate a repressing activity, the TSLP IR1 nGRE was inserted upstream of an enhancerless SV40 early promoter located 5′ to the luciferase coding sequence of pGL3 vector, A VDRE separated from the IR1 nGRE by a 314 bp-long DNA segment devoid of any known transregulator binding site (not shown) was inserted to generate a luciferase-expressing reporter plasmid (pGL3(VDRE) IR1 nGRE, FIG. 4), which was transfected into A549 cells, followed by addition of VitD3 and/or FA.
To investigate whether the 1 bp spacer between the inverted repeated motifs of TSLP IR1 nGRE was critical for its repressing function, pGL3-based luciferase plasmids containing the VDRE and TSLP nGRE motifs spaced by 0 to 5 bases (IR0 to IR5 nGREs) were transfected into A549 cells.
In general terms: In a reporter assay the amount or activity of a reporter protein is the signal.

In experiment [3] the test system is VDRE reporter plasmid (IR nGRE element deleted). As to the kind of experiment: Luciferase reporter assay in A549 cells, VDRE reporter without IR1 nGRE. The class given is cell-based, human. The conditions noted are these: FA addition. As for the experimental part:
Luciferase reporter assay. A549 cells seeded on 24-well tissue culture plates overnight at 70% confluency were transfected with 100 ng pCMV β galactosidase, 200 ng pGL3 reporter plasmids and wherever indicated, with 600 ng pSG5 hVDR plasmid (Green et al., 1988) into each well and maintained in medium containing charcoal treated FCS. 24 hours post-transfection, medium was changed and different compounds were added to it for 6 hours. Final concentrations of the compounds are: FA, 500 nM; Dex or RU24858, 300 nM or 500 nM (wherever 300 nM Dex or RU was used, it is indicated in the figure, in all other cases, 500 nM concentration was used); active vitamin D3, 1 μM; IL-1β, 5 ng/ml; BAY 11-7082, 5 μM, JNK inhibitor II, 25 μM. Luciferase assay was carried out as instructed (Promega). Normalized values are reported as the mean±SEM; each value originates from at least three individual transfections with assays performed in duplicate. […]

Turning to `CC1(C)O[C@@H]2C[C@H]3[C@@H]4C[C@H](F)C5=CC(=O)C=C[C@]5(C)[C@@]4(F)[C@@H](O)C[C@]3(C)[C@]2(C(=O)CO)O1` [FA, fluocinolone acetonide], the “MC-induced TSLP expression, effect of FA” value in the experiment on TSLP is recorded as “blocked”. For the same compound, the “inhibition of basal TSLP RNA level” value in the experiment on TSLP (ears, topical FA) was roughly 50%. The “MC-induced increase of TSLP RNA, effect of FA” value with TSLP (ears, topical, MC903 co-treatment) was “fully blocked”. Besides, the “expression of GPX3 gene” value in experiment [1] is listed as “enhanced”. Moreover, in experiment [2] (6 hours, FIG. 13), the “reporter genes containing the IR1 nGRE DBS of various genes” value is listed as “induces repression”. Also, in experiment [2] (FA), the “repressing activity with mutant IR1 nGRE to which recombinant GR does not bind” value is on record as “no FA-inducible repressing activity”. The “basal and VDRE-mediated VitD3-induced luciferase expression in presence of IR1 nGRE” value in experiment [2] (pGL3(VDRE) IR1 nGRE, FA addition, FIG. 11) is recorded as “decreased expression”. Further, in experiment [2] (upon FA addition), the “change in basal and VitD3-induced luciferase activity for IR3, IR4 and IR5 nGREs” value is “no significant change”; the “decrease in basal and VitD3-induced luciferase activity for IR1 and IR2 compared with IR0 nGRE” value is recorded as “stronger”. In addition, in experiment [3], the “luciferase expression in absence of IR1 nGRE” value is listed as “did not affect”.

Source of the values: patent publication US20140093884A1, “Process for Identifying Novel Anti-Inflammatory Molecules with Reduced Direct Transrepression of Genes Induced by Glucocorticoids” (UNIVERSITE DE STRASBOURG, priority 2011, published 2014).
